Source: publication PMC3478670 (Journal of medicinal chemistry, 2012)

test system: not listed separately; experiment: in vitro; conditions: human, pooled human liver microsomes, pH 7.4

SMILES	microsomal CLint at 1 μM
C=C(C)[C@@H]1CC[C@]2(C(=O)N3CCN(CCCCC(=O)O)CC3)CC[C@]3(C)[C@H](CC[C@@H]4[C@@]5(C)CC[C@H](OC(=O)CC(C)(C)C(=O)O)C(C)(C)[C@@H]5CC[C@]43C)[C@@H]12 [Compound 41, N-[3β-O-(3′,3′-Dimethylsuccinyl)-lup-20(29)-en-28-oyl]-5-piperazinepentanoic acid]	2.1 µL/min/mg

test system: HIV-1NL4-3; experiment: HIV-1NL4-3 replication inhibition assay in MT-4 lymphocytes; format: cell-based; conditions: HIV-1NL4-3 infected MT-4 cells

SMILES	anti-HIV replication activity (in words)
C=C(C)[C@@H]1CC[C@]2(C(=O)OCOC)CC[C@]3(C)[C@H](CC[C@@H]4[C@@]5(C)CC[C@H](OCOC)C(C)(C)[C@@H]5CC[C@]43C)[C@@H]12 [Compound 3, Methoxymethyl 3β-methoxymethoxy-lup-20(29)-en-28-oate]	did not show anti-HIV activity
C=C(C)[C@@H]1CC[C@]2(C(=O)OCCCCCCCC)CC[C@]3(C)[C@H](CC[C@@H]4[C@@]5(C)CC[C@H](OC(=O)CC(C)(C)C(=O)O)C(C)(C)[C@@H]5CC[C@]43C)[C@@H]12 [Compound 23, Octyl 3β-O-(3′,3′-dimethylsuccinyl)-lup-20(29)-en-28-oate]	no inhibition of HIV-1 replication
C=C(C)[C@@H]1CC[C@]2(C(=O)OCOCCOC)CC[C@]3(C)[C@H](CC[C@@H]4[C@@]5(C)CC[C@H](O)C(C)(C)[C@@H]5CC[C@]43C)[C@@H]12 [Compound 8, Methoxyethoxymethyl 3β-hydroxy-lup-20(29)-en-28-oate]	did not show anti-HIV activity
C=C(C)[C@@H]1CC[C@]2(C(=O)O)CC[C@]3(C)[C@H](CC[C@@H]4[C@@]5(C)CC[C@H](OCOCCOC)C(C)(C)[C@@H]5CC[C@]43C)[C@@H]12 [Compound 6, 3β-Methoxyethoxymethoxy-betulinic acid]	did not show anti-HIV activity
C=C(C)[C@@H]1CC[C@]2(C(=O)O)CC[C@]3(C)[C@H](CC[C@@H]4[C@@]5(C)CC[C@H](OCOC)C(C)(C)[C@@H]5CC[C@]43C)[C@@H]12 [Compound 5, 3β-Methoxymethoxy-betulinic acid]	did not show anti-HIV activity
C=C(C)[C@@H]1CC[C@]2(C(=O)OCOCCOC)CC[C@]3(C)[C@H](CC[C@@H]4[C@@]5(C)CC[C@H](OCOCCOC)C(C)(C)[C@@H]5CC[C@]43C)[C@@H]12 [Compound 4, Methoxyethoxymethyl 3β-methoxyethoxymethoxy-lup-20(29)-en-28-oate]	did not show anti-HIV activity
C=C(C)[C@@H]1CC[C@]2(C(=O)OCOC)CC[C@]3(C)[C@H](CC[C@@H]4[C@@]5(C)CC[C@H](O)C(C)(C)[C@@H]5CC[C@]43C)[C@@H]12 [Compound 7, Methoxymethyl 3β-hydroxy-lup-20(29)-en-28-oate]	did not show anti-HIV activity
